The values below come from ChEMBL document CHEMBL1201862, “PubChem BioAssay data set” (2004).

Experiment [1] deals with G-protein coupled receptor 55 (Homo sapiens, UniProt Q9Y2T6). Briefly: inhibition of LPI-stimulated GPR55 beta-arrestin translocation – imaging, U2OS, beta-arrestin-GFP, LPI agonist, primary screen (AID 2013).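 Also: antagonist potency measured as reduced agonist-driven arrestin aggregation.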 It counts as functional.
The target in experiment [2] is Glyceraldehyde-3-phosphate dehydrogenase (Homo sapiens, UniProt P04406).
Chain of Glyceraldehyde-3-phosphate dehydrogenase (P04406 whole entry): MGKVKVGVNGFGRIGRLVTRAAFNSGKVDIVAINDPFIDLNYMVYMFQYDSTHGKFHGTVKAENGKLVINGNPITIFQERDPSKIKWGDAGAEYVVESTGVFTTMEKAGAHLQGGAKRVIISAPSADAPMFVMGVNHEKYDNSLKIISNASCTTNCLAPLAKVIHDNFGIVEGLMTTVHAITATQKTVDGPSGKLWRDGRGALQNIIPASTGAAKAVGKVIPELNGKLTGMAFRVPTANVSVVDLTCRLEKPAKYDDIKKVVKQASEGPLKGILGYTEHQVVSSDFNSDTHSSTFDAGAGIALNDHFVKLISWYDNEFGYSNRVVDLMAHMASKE
A short description of experiment [3]: THP-1 cell cytotoxicity, dose response, cytotoxicity control for non-replicating M. tuberculosis project (AID 489025). The format is functional.
The nature of experiment [4]: Vero E6 cell cytotoxicity, dose response, cytotoxicity control for non-replicating M. tuberculosis project, secondary assay (AID 492998). The note with it: Vero C1008. The format is functional, VeroE6.
Experiment [5] is described as follows: cells. The format is functional.
In experiment [6] the target is T1, Histone-lysine N-methyltransferase NSD2 (Homo sapiens, UniProt O96028).
T1 sequence (O96028 whole entry): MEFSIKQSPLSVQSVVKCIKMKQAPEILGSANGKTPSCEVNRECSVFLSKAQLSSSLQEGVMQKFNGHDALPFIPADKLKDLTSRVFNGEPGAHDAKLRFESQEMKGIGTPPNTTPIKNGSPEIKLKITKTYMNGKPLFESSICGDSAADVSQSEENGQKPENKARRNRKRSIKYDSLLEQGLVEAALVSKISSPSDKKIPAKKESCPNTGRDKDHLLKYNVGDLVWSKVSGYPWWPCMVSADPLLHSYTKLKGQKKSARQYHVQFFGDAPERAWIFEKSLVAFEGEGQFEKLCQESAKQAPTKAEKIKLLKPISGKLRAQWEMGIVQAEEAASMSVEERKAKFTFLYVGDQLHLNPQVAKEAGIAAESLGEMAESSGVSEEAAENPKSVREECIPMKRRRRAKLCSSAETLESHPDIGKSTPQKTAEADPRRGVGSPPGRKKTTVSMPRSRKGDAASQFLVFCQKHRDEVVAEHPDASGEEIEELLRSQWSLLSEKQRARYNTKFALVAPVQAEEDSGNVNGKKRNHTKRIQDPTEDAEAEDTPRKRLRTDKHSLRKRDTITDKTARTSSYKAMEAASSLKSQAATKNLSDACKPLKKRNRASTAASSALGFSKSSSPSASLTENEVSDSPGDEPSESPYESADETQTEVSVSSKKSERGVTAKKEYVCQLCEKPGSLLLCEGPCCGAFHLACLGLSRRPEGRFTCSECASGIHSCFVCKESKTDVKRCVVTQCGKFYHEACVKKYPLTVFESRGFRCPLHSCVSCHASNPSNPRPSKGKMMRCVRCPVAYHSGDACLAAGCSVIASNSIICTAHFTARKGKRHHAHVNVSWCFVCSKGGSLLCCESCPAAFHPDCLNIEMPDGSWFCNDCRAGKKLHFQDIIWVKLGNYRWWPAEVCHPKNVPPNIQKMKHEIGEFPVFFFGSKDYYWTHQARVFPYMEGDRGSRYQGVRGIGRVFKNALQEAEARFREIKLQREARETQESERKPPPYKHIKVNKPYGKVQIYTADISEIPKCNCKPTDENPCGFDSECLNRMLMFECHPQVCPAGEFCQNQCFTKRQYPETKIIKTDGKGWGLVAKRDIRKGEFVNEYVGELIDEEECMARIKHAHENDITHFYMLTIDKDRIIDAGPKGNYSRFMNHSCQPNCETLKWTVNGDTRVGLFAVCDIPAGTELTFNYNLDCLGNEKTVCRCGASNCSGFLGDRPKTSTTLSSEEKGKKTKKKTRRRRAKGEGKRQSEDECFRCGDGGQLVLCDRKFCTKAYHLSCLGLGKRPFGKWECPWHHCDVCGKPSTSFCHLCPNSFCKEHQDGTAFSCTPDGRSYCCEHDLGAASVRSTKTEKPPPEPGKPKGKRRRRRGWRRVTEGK
The format is biochemical.

A short description of experiment [7]: microbe, parasite or virus in culture. The format is functional. The settings on record: Mycobacterium tuberculosis.
In experiment [8] the target is T2, Leucine aminopeptidase (Plasmodium falciparum 3D7, UniProt Q8IL11).
T2 sequence (Q8IL11 whole entry): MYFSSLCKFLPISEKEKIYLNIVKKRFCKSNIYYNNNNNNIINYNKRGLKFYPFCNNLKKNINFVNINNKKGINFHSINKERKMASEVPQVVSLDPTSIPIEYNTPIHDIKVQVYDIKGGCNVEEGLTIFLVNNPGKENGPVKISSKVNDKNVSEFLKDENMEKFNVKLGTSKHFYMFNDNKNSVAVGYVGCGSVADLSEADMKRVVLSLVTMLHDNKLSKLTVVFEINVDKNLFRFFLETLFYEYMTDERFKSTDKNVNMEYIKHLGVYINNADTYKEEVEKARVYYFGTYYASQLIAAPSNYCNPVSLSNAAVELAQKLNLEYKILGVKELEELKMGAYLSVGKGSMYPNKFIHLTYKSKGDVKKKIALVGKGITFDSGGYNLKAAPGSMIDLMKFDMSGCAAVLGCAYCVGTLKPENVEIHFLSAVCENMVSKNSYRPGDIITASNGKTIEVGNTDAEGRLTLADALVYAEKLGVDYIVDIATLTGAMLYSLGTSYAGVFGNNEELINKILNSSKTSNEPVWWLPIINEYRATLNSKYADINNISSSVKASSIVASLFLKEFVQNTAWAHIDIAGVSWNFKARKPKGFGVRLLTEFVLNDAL
Briefly: P. falciparum M17LAP inhibitors, primary screen, biochemical, fluorogenic H-Leu-NHMec substrate, 1536-well (AID 1619). The format is functional.

Experiment [9] concerns the target T3, Replicative DNA helicase DnaB (Mycobacterium tuberculosis, UniProt P9WMR3).
T3 sequence (P9WMR3 whole entry): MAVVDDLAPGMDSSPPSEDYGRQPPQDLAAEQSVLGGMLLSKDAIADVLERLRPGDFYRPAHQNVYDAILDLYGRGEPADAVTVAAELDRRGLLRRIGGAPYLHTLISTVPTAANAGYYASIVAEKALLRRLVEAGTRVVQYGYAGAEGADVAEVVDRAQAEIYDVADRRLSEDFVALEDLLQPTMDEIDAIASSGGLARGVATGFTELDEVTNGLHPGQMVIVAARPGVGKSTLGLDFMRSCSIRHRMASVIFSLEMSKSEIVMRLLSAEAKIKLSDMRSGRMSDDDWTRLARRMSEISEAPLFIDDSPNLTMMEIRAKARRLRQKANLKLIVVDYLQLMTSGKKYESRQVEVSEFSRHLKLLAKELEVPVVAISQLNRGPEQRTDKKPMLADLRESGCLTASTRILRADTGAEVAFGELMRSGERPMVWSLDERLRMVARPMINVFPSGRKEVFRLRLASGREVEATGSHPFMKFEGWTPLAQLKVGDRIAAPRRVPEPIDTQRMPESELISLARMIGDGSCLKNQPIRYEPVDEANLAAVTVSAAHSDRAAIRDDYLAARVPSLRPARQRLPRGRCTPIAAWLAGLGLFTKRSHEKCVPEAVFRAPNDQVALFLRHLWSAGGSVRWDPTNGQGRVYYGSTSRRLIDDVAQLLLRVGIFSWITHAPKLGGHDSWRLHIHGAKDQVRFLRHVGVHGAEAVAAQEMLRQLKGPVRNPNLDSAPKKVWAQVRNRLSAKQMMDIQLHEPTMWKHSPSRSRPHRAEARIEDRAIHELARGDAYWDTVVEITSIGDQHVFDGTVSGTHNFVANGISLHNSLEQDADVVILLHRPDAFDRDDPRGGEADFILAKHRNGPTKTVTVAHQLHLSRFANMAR
As to the kind of experiment: DnaB intein splicing inhibitors, dose response, biochemical, cell-free fluorescence (AID 449749). It counts as functional.

For experiment [10], the target named is T4, Protein RecA (Mycobacterium tuberculosis, UniProt P9WHJ3).
T4 sequence (P9WHJ3 whole entry): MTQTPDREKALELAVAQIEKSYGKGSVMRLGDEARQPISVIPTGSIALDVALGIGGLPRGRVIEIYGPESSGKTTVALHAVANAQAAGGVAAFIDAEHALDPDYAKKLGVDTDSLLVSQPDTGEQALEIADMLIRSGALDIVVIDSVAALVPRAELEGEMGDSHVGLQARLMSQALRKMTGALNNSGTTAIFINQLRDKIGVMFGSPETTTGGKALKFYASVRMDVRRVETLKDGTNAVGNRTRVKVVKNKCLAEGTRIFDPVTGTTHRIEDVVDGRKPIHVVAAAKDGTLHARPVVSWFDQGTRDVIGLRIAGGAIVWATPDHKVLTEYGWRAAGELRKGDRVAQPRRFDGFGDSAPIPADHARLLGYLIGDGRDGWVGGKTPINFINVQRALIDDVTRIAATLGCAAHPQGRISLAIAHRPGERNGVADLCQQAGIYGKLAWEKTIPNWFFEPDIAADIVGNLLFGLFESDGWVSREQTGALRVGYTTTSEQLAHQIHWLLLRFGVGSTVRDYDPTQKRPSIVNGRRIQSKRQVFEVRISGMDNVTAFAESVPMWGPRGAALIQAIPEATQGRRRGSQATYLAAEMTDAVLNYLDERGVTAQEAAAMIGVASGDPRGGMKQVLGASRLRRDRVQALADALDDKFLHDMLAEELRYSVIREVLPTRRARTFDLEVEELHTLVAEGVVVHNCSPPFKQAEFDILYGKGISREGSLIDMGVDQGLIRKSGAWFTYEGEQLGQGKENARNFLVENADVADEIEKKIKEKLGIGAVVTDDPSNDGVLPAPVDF
As to the kind of experiment: Fluorescence Cell-Free Homogeneous Dose Retest to Identify Inhibitors of RecA-Intein Splicing Activity. [Related pubchem assays (depositor defined):AID2097, AID2223, AID489010, AID492950]. It counts as functional.

Experiment [11] in a line: OVCAR-3 cell viability loss – plate reader, dry powder samples, PAX8 inhibitor project, dose response (AID 743044). The format is functional, cell-based.
Experiment [12] concerns the target Paired box protein Pax-8 (Homo sapiens, UniProt Q06710). As to the kind of experiment: PAX8 transcriptional activity inhibition in RMG-I – RMG-I cells, luciferase, cherry-pick, dose response (AID 687027).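 Also: luciferase reporter driven by Pax8 target thyroperoxidase promoter measured by SteadyGlo luminescence.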 It counts as functional, cell-based.
Experiment [13] is described as follows: P. falciparum Dd2 growth inhibitors, dose response, SYBR Green, cherry-picked samples (AID 1159567). It counts as functional, cell-based.

SMILES strings stand for the structures. Active and inactive are the calls of the source.

Chain of G-protein coupled receptor 55 (Q9Y2T6 whole entry): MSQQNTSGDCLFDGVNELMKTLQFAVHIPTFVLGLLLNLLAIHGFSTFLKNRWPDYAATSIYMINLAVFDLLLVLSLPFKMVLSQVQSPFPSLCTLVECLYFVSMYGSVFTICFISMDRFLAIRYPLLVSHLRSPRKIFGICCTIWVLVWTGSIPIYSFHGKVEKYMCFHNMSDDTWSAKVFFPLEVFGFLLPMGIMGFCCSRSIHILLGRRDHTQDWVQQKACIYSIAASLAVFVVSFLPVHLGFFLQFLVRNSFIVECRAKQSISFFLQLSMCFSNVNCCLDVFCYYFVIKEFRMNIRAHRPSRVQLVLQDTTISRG
Chain of Paired box protein Pax-8 (Q06710 whole entry): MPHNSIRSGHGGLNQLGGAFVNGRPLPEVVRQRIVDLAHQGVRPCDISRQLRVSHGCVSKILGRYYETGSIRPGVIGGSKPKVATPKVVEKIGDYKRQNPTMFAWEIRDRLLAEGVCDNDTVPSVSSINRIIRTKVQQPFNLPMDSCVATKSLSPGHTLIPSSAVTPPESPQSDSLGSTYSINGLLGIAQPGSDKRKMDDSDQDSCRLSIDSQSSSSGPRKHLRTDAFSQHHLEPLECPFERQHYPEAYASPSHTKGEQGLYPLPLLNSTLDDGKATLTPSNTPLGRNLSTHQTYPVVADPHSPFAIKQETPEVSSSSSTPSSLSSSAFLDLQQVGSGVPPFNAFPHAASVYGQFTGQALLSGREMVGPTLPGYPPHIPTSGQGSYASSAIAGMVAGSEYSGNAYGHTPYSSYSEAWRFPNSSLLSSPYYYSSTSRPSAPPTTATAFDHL

Regarding `CC(C)c1ccc(NC(=S)NN(c2ccccc2)c2ccccc2)cc1`, the concentration for half-maximal inhibition (IC50) (usually the concentration needed to halve the response being measured) in [1] was 0.793 µM (active). Take `Cc1ccccc1-n1cnnc1SCC(=O)N1CCN(c2ccccc2)CC1`: in experiment [2], the IC50 was 36.3 µM (active).

With `S=C1SCN(Cc2cccnc2)CN1Cc1ccccc1`, the CC50 in experiment [3] was 15.2 µM (active); in experiment [4], 11 µM (active). Moreover, the concentration for half-maximal inhibition (IC50) in experiment [5] was 18.2 µM (active).

With `CNCc1ccccc1Sc1ccc(OC)c(OC)c1`, in experiment [6], the AC50 (commonly the concentration at which the activity in the assay is half-maximal) was > 20 µM (inactive).

`COc1ccc(SC[C@H](Cc2ccccc2)N2CCN(CCc3ccccc3)CCC2=O)cc1`: in [7], the CC50 is > 40 µM (active). On the same count and under the same terms, to `CC1(C)Cc2c(C#N)c(N3CCN(C(=O)c4ccccc4)CC3)nc(Cc3ccccc3)c2CO1` belongs 39 µM (active). With `CCN1CCN(C2=C(Cl)C(=O)N(c3ccnc(Cl)c3)C2=O)CC1`, the half-maximal inhibitory concentration (IC50) in [2] was > 50 µM (inconclusive). Regarding `Cc1noc(NS(=O)(=O)c2ccc(NC(=O)CSc3nc4ccccc4s3)cc2)c1C`, the IC50 in experiment [8] is 15.3 µM (active). For `CCCn1c2c(c(O)c(C(=O)NCCCN(CC)CC)c1=O)CCCC2`, the AC50 in [6] was > 20 µM (inactive).

In the case of `CC(=O)NC1C(c2nc3ccccc3s2)=C(c2ccccc2)C(=O)N1c1ccc(C)cc1` (stereo not drawn), the CC50 in experiment [7] is > 40 µM (active). Turning to `N#CC1=C(N)Oc2[nH]nc(-c3ccccc3)c2C1c1cccnc1` (stereo not drawn), the AC50 in experiment [9] is 6.14 µM (active). In addition, the 50% effective concentration (EC50) (usually the concentration giving half of the maximal effect) in [10] was 1.79 µM (active). Also, in [8], the concentration for half-maximal inhibition (IC50) is 60.4 µM (active).

In the case of `Cc1ccc(OCC(=O)Nc2ccc(O)c(C(=O)O)c2)cc1C`, in experiment [8], the IC50 is 19.5 µM (active). On to `CSc1cccc(CNC(=O)C2CCC(=O)N(Cc3cccc(C(F)(F)F)c3)C2)c1` (stereo not drawn), for which the CC50 in [7] is > 40 µM (active). For the molecule `O=C1C2CC=CCC2C(=O)N1c1nc(-c2cccnc2)n[nH]1` (stereo not drawn), in [2], the half-inhibitory concentration (IC50) was > 100 µM (not active). For the molecule `CC1(C)[N+]([O-])=CC(c2cccs2)=[N+]1[O-]`, in experiment [8], the IC50 is 22.7 µM (active). With `CCn1c(NC(=O)C2CCCCC2)nc2ccccc21`, the CC50 in experiment [3] is 31.7 µM (active); in [4] it was > 20 µM (active). Moreover, the 50% inhibitory concentration (IC50) in experiment [5] is 1.33 µM (active). As to `C[C@@H]1CN([C@H](C)CO)C(=O)c2cc(NS(=O)(=O)c3cccs3)ccc2O[C@@H](C)CCCCO[C@@H]1CN(C)Cc1ccc(C(F)(F)F)cc1`, the AC50 is 58.7 µM (active) in [11] and 4.55 µM (active) in [12]. `COc1ccc(/N=C(/C2=C(O)CCC2)C2CCCCC2)cc1`: the CC50 in experiment [7] is > 40 µM (active). On to `C/C=C/c1ccc2n(c1=O)C[C@H]1[C@H](CO)[C@@H](C(=O)N3CCC(Cc4ccccc4)CC3)N(CCC)[C@@H]21.C/C=C\c1ccc2n(c1=O)C[C@H]1[C@H](CO)[C@@H](C(=O)N3CCC(Cc4ccccc4)CC3)N(CCC)[C@@H]21`, for which the concentration at half-maximal activity (AC50) in experiment [13] is 15.8 µM (active). On to `C[C@@H]1CN([C@@H](C)CO)C(=O)c2cc(C#Cc3ccccc3)cnc2O[C@H]1CN(C)C(=O)CN(C)C`, for which, in [13], the AC50 was 5.45 µM (active).

For the molecule `C=CCC1C=C(Cc2ccccc2)CC(CC=C)N1` (stereo not drawn), in [6], the AC50 is > 20 µM (inactive).
